Measured values published in patent US20230042198A1, “Methods and Compositions for Modulationg Heterochromatin Dysfunction, Genomic Instability, and Associate Conditions” (La Jolla Institute for Immunology, priority 2019, published 2023).

System: IMR90 fibroblasts, CD4+ and CD8+ T cells, CD34+ cells
Experiment: Senescence and heterochromatic hypomethylation with cell division/aging, rescue with Vitamin C
Format: cell-based, human
Details: activator of TET proteins
Text: Example 9: The inventors investigated heterochromatin dysfunction as a function of both cellular age and number of cell divisions, using multiple cellular systems: IMR90 fibroblasts, freshly isolated CD4+ and CD8+ T cells from young and old human donors, and commercially available CD34^+ cells (enriched for hematopoietic precursor cells) from human newborns (cord blood) and older adults.
Tet1/2/3 triple-foxed (Tet1/2/3 Tfl) RosaYFP^LSL or RosaYFP^LSL mice were used, left […] with tamoxifen; (ii) DNMT3a (or multiple Dnmt) foxed mice, also bearing the RosaYFP^LSL reporter and left […] with tamoxifen. Mouse fibroblasts have a longer passage time to senescence, so IMR90 human fibroblasts in which partial TET or DNMT loss-of-function was induced by genome editing were also used.

Compound: O=C1O[C@H]([C@@H](O)CO)C(O)=C1O [Vitamin C]
- hypomethylation observed with cell division and/or aging: can be rescued
- time to senescence: can be delayed
